Publication PMC8588462, “Hybrid Chelator-Based PSMA Radiopharmaceuticals: Translational Approach” (Molecules, 2021)

Target: T1, Prostate-specific membrane antigen (PSMA) (Homo sapiens, UniProt Q04609)
T1 construct: gene FOLH1; native full-length membrane protein on intact LNCaP prostate cancer cells; homodimer (known biology)
Experiment: competitive radioligand binding, LNCaP cells, filter plates
Format: cell-based
Settings: 0.75 nM [68Ga]Ga-PSMA-10 tracer, room temperature, 45 min; non-labelled ligand (no metal)
Text: competitive radioligand binding, LNCaP cells, filter plates on Prostate-specific membrane antigen (PSMA)

T1 sequence (Q04609 whole entry): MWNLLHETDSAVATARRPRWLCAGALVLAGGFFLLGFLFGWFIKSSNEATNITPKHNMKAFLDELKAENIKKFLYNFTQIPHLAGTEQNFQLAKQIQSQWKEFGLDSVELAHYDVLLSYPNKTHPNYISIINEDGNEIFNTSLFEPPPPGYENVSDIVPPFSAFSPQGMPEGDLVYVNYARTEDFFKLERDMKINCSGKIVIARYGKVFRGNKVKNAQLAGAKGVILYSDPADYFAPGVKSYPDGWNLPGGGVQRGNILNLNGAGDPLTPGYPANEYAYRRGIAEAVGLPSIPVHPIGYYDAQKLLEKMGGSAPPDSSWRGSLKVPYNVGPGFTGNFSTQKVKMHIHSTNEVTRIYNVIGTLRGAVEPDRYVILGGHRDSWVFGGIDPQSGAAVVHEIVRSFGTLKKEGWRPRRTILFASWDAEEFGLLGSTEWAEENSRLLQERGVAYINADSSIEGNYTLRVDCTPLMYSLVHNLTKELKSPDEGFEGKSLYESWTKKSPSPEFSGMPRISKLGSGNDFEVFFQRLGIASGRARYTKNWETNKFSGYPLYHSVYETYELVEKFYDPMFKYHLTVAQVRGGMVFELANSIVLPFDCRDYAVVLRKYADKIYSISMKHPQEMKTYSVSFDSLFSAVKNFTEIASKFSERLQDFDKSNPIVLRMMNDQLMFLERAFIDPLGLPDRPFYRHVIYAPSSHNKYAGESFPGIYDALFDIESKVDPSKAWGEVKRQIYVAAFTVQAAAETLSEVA

IC50 [µM]	SMILES
0.0262 ± 0.0024	O=C(O)CCc1ccc(O)c(CN(CCN(CC(=O)O)Cc2cc(CCC(=O)NCCCCCC(=O)NCCCC[C@H](NC(=O)N[C@@H](CCC(=O)O)C(=O)O)C(=O)O)ccc2O)CC(=O)O)c1 [PSMA-11]
0.0511 ± 0.0055	CN(CC(=O)O)C1(CCCCC(=O)NCCNc2c(NCCCC[C@H](NC(=O)N[C@@H](CCC(=O)O)C(=O)O)C(=O)O)c(=O)c2=O)CN(CC(=O)O)CCN(CC(=O)O)C1 [compound 14, DATA^5m.SA.KuE]
